Values joined by “and” are separate entries in the source; they are usually repeats but may differ in a detail not shown here. Equal values may be shown once. Read-outs that look alike come from different tables or passages of the source.

The conditions of series [1]: cited from earlier work.
Series [2] is described as follows: Degradation behaviour in moderately heavy soil (silt/loam) under laboratory conditions. As to the method: Degradation Behaviour of Racemic Metalaxyl and R-metalaxyl in Moderately Heavy Soil
Two groups of 8 samples each of biologically active soil (silt/loam; loam: 13.9%; silt: 54.3%; sand: 31.8%; organic carbon: 2.1%; pH 7.3; biomass: 65.1 mg microbial carbon per 100 g soil; origin: Les Evouettes, Valais, Switzerland) are treated in parallel with racemic metalaxyl or R-metalaxyl, respectively, in each case in acetonic solution. The rate of application is 0.5 mg/kg of soil sample, which corresponds to a rate of application of 0.5 kg/hectare. The results are evaluated in duplicate after 0, 7, 14 and 21 days.

In series [3] the test system is metalaxyl-sensitive strain of Plasmopara viticola. Briefly: Foliar spray on vine plantlets infected with Plasmopara viticola (two-leaf and three-leaf stage sprayings). The class given is in vivo. The procedure:
Vine plantlets cv. "Gutedel" are grown under greenhouse conditions using one plant per pot (.O slashed.=6 cm) and sprayed with a spray broth prepared from an emulsion concentrate, either in the two-leaf stage or in the three-leaf stage. The following concentrations of active ingredient are used per batch of 4 plants: 200; 60; 20; 6; 2; 0.6; 0.2; 0.06 mg of a.i./liter. This dilution series is prepared in demineralized water immediately prior to application as a foliar spray. To exclude a gas-phase effect of the a.i. in the vicinity, all plants are separated from each other on the side using translucent plastic foils and kept in the dark for one day at 20°-22° C. and a relative humidity of approximately 100%.
Then, the entire leaf surface area of the plants is uniformly sprayed to drip point with a freshly prepared sporangia suspension (120 000/ml) of a metalaxyl-sensitive strain of Plasmopara viticola. The plants are then kept for 7 days under a 16 hour photoperiod with artificial daylight at 20°-22° C. and a relative humidity of approximately 100%. This is followed by evaluation of the infestation, separating three-leaf and two-leaf stage sprayings. The tables show in each case the average of 4 parallel sprayings.

A short description of series [4]: Degradation behaviour in sandy soil under laboratory conditions. To be noted: sand. Set-up: degradation equation Ct, rate constant in exponent: unit: 1/day. As to the method: Degradation Behaviour of Racemic Metalaxyl and R-metalaxyl in Sandy Soil
Two groups of 16 samples each of biologically active soil (sandy soil; loam: 5.1%; silt: 11.4%; sand: 83.5%; organic carbon: 1.6%; pH 4; biomass: 51 mg microbial carbon/100 g soil; origin: Collombey, Valais, Switzerland)are treated in parallel with racemic metalaxyl or R-metalaxyl, respectively, in each case in acetonic solution. The rate of application is 0.5 mg/kg of soil sample, which corresponds to a rate of application of 0.5 kg/hectare. The results are evaluated in duplicate after 0, 1, 3, 7, 9, 15, 21 and 29 days.

Where [5] appears, read: day 7, mean of duplicate, 10080 min.
The mark [6] stands for this setting: day 7, single sample, 10080 min.
[7] abbreviates: day 21, mean of duplicate, 30240 min.
The mark [8] stands for this setting: day 21, single sample, 30240 min.

Consider `COC(=O)C(C)N(C(=O)c1ccco1)c1c(C)cccc1C` (racemic) [Furalaxyl, N-(2,6-dimethylphenyl)-N-(2-furanylcarbonyl)-DL-alanine methyl ester], for which the “DT-50 (hydrolytic half-life)” value was above 200 days in series [1] (20° C., pH1) and above 200 days in series [1] (20° C., pH9).
With `COCC(=O)N(c1c(C)cccc1C)[C@H](C)C(=O)OC` [R-metalaxyl], the “Compound remaining in soil (% of applied)” value is 96.28 % of applied in series [2] (day 0, mean of duplicate); 93.61 % of applied and 98.94 % of applied in series [2] (day 0, single sample); 25.23 % of applied in series [2] (setting [5]); 24.74 % of applied and 25.7 % of applied in series [2] (setting [6]); 9.85 % of applied in series [2] (day 14, mean of duplicate, 20160 min); 9.07 % of applied and 10.62 % of applied in series [2] (day 14, single sample, 20160 min). Besides, the “Compound remaining in soil (% of applied)” value in series [2] (setting [7]) is 7.69 % of applied; in series [2] (setting [8]), 7.57 % of applied and 7.82 % of applied. Moreover, the “degradation equation Ct, pre-exponential factor” value is given as 95.9 in series [2] (first-order fit) and 98.54 in series [4] (first-order fit). Further, the “DT-50 (50% degradation)” value was found to be 3.9 days in series [2] (from degradation curve FIG. 1) and 8.1 days in series [4] (from degradation curve FIG. 2). The “DT-90 (90% degradation)” value is recorded as 13.0 days in series [2] (from degradation curve FIG. 1) and 26.9 days in series [4] (from degradation curve FIG. 2). In addition, the Foliar infestation in series [3] (three-leaf stage, 0.06 mg of a.i./liter, untreated control 92) was determined as 93%; in series [3] (three-leaf stage, 0.2 mg of a.i./liter, untreated control 92) it was 78%; in series [3] (three-leaf stage, 0.6 mg of a.i./liter, untreated control 92), 0%; in series [3] (three-leaf stage, 2 mg of a.i./liter, untreated control 92), 0%; in series [3] (three-leaf stage, 6 mg of a.i./liter, untreated control 92) it was 0%; in series [3] (three-leaf stage, 20 mg of a.i./liter, untreated control 92) it was 0%. For the same compound, the Foliar infestation in series [3] (three-leaf stage, 60 mg of a.i./liter, untreated control 92) is 0%; in series [3] (three-leaf stage, 200 mg of a.i./liter, untreated control 92), 0%; in series [3] (two-leaf stage, 0.06 mg of a.i./liter, untreated control 96) it was 92%; in series [3] (two-leaf stage, 0.2 mg of a.i./liter, untreated control 96) it was 97%; in series [3] (two-leaf stage, 0.6 mg of a.i./liter, untreated control 96), 78%; in series [3] (two-leaf stage, 2 mg of a.i./liter, untreated control 96), 4%. Also, the Foliar infestation in series [3] (two-leaf stage, 6 mg of a.i./liter, untreated control 96) was determined as 0%; in series [3] (two-leaf stage, 20 mg of a.i./liter, untreated control 96), 0%; in series [3] (two-leaf stage, 60 mg of a.i./liter, untreated control 96) it was 0%; in series [3] (two-leaf stage, 200 mg of a.i./liter, untreated control 96) it was 0%. Also, the “activity relative to racemic metalaxyl” value is listed as “approximately 100 times” in series [3] (three-leaf stage, up to 0.6 mg of a.i./liter) and “up to 30 times” in series [3] (two-leaf stage, up to dilutions of 2 mg of a.i./liter). Also, the “Rate of degradation (% of applied), mean” value in series [4] (day 0, mean of duplicate) was 100.02 % of applied; in series [4] (day 1, mean of duplicate, 1440 min), 89.64 % of applied; in series [4] (day 3, mean of duplicate, 4320 min), 75.48 % of applied; in series [4] (setting [5]), 52.59 % of applied; in series [4] (day 9, mean of duplicate, 12960 min) it was 46.84 % of applied; in series [4] (day 15, mean of duplicate, 21600 min) it was 27.33 % of applied. Moreover, the “Rate of degradation (% of applied), mean” value in series [4] (setting [7]) was 17.09 % of applied; in series [4] (day 29, mean of duplicate, 41760 min), 8.72 % of applied. The “Rate of degradation (% of applied)” value in series [4] (day 0, single sample) is 100.32 % of applied and 99.72 % of applied; in series [4] (day 1, single sample, 1440 min) it was 89.16 % of applied and 90.13 % of applied; in series [4] (day 3, single sample, 4320 min) it was 76.96 % of applied and 74.01 % of applied; in series [4] (setting [6]) it was 52.59 % of applied; in series [4] (day 9, single sample, 12960 min), 47.22 % of applied and 46.45 % of applied; in series [4] (day 15, single sample, 21600 min) it was 24.77 % of applied and 29.89 % of applied. Moreover, the “Rate of degradation (% of applied)” value in series [4] (setting [8]) is 17.12 % of applied and 17.05 % of applied; in series [4] (day 29, single sample, 41760 min), 8.82 % of applied and 8.62 % of applied. Besides, the “degradation equation Ct, rate constant in exponent” value in series [4] (first-order fit, e^(-k*t)) came to 0.08548.
For the compound `COC(=O)C(C)N(C(=O)Cc1ccccc1)c1c(C)cccc1C` (racemic) [Benalaxyl, N-(2,6-dimethylphenyl)-N-(phenylacetyl)-DL-alanine methyl ester], the “DT-50 (hydrolytic half-life)” value in series [1] (pH9.25) was 86 days.

The values are drawn from US5723491A, “Fungicidal composition and method of controlling fungus infestation” (Novartis Corporation, priority 1994, dated 1998).
